Data from PubChem BioAssay (NCI).
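Five concentrations, 48 hours, 96-well plates. GI50: concentration for 50% inhibition of growth. Definition used: TGI = concentration required for complete inhibition of growth.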

What was measured:
Assay in all cases: NCI anticancer screen, dose series, 48 h
RXF 393 renal = system: RXF 393 renal
T-47D breast = system: T-47D breast
BT-549 breast = system: BT-549 breast
A549 NSCLC = system: A549 NSCLC
IGROV1 ovarian = system: IGROV1 ovarian
HCC-2998 colon = system: HCC-2998 colon
KM12 colon = system: KM12 colon
NCI-H23 lung = system: NCI-H23 lung
SK-OV-3 ovarian = system: SK-OV-3 ovarian
CCRF-CEM leukemia = system: CCRF-CEM leukemia
EKVX NSCLC = system: EKVX NSCLC
U251 CNS = system: U251 CNS
OVCAR-4 ovarian = system: OVCAR-4 ovarian
HOP-62 NSCLC = system: HOP-62 NSCLC
SF-268 CNS = system: SF-268 CNS
TK-10 renal = system: TK-10 renal
SN12C renal = system: SN12C renal
NCI-H226 lung = system: NCI-H226 lung
DU-145 prostate = system: DU-145 prostate
M14 melanoma = system: M14 melanoma
HT29 colon = system: HT29 colon
SF-539 CNS = system: SF-539 CNS
SF-295 CNS = system: SF-295 CNS
RPMI-8226 leukemia = system: RPMI-8226 leukemia
LOX IMVI melanoma = system: LOX IMVI melanoma
HOP-92 NSCLC = system: HOP-92 NSCLC
OVCAR-8 ovarian = system: OVCAR-8 ovarian
SW-620 colon = system: SW-620 colon
NCI/ADR-RES ovarian = system: NCI/ADR-RES ovarian
HCT-15 colon = system: HCT-15 colon
OVCAR-5 ovarian = system: OVCAR-5 ovarian
PC-3 prostate = system: PC-3 prostate
NCI-H460 lung = system: NCI-H460 lung
SK-MEL-5 melanoma = system: SK-MEL-5 melanoma
HCT-116 colon = system: HCT-116 colon
UO-31 renal = system: UO-31 renal
MOLT-4 leukemia = system: MOLT-4 leukemia
OVCAR-3 ovarian = system: OVCAR-3 ovarian
SK-MEL-28 melanoma = system: SK-MEL-28 melanoma
K-562 leukemia = system: K-562 leukemia
A498 renal = system: A498 renal
MDA-MB-435 = system: MDA-MB-435
SNB-75 CNS = system: SNB-75 CNS
NCI-H522 lung = system: NCI-H522 lung
UACC-257 melanoma = system: UACC-257 melanoma
COLO 205 colon = system: COLO 205 colon
SNB-19 CNS = system: SNB-19 CNS
MCF7 breast = system: MCF7 breast
MDA-MB-231 breast = system: MDA-MB-231 breast
HS 578T breast = system: HS 578T breast
MALME-3M melanoma = system: MALME-3M melanoma
HL-60(TB) leukemia = system: HL-60(TB) leukemia
ACHN renal = system: ACHN renal
SR leukemia = system: SR leukemia
UACC-62 melanoma = system: UACC-62 melanoma
786-0 renal = system: 786-0 renal
CAKI-1 renal = system: CAKI-1 renal

Structure (SMILES): COc1ccc([C@@H]2[C@@H](O)C(=O)N2c2cc(OC)c(OC)c(OC)c2)cc1Cl
- GI50 (RXF 393 renal): 43.1 nM
- TGI (RXF 393 renal): > 100000 nM
- GI50 (T-47D breast): 33100 nM
- TGI (T-47D breast): > 100000 nM
- GI50 (BT-549 breast): < 14.4 nM
- TGI (BT-549 breast): 66.8 nM
- GI50 (A549 NSCLC): < 19.3 nM
- TGI (A549 NSCLC): > 100000 nM
- GI50 (IGROV1 ovarian): < 20.3 nM
- TGI (IGROV1 ovarian): > 100000 nM
- GI50 (HCC-2998 colon): < 19.4 nM
- GI50 (KM12 colon): < 16.3 nM
- TGI (KM12 colon): > 100000 nM
- GI50 (NCI-H23 lung): 35.3 nM
- TGI (NCI-H23 lung): > 100000 nM
- GI50 (SK-OV-3 ovarian): < 22.9 nM
- TGI (SK-OV-3 ovarian): > 51300 nM
- GI50 (CCRF-CEM leukemia): < 18.5 nM
- TGI (CCRF-CEM leukemia): > 100000 nM
- TGI (EKVX NSCLC): > 100000 nM
- GI50 (U251 CNS): < 17.8 nM
- TGI (U251 CNS): > 100000 nM
- GI50 (OVCAR-4 ovarian): 2160 nM
- TGI (OVCAR-4 ovarian): > 100000 nM
- GI50 (HOP-62 NSCLC): < 20.1 nM
- TGI (HOP-62 NSCLC): > 100000 nM
- GI50 (SF-268 CNS): < 21.6 nM
- TGI (SF-268 CNS): > 100000 nM
- GI50 (TK-10 renal): > 54900 nM
- TGI (TK-10 renal): > 100000 nM
- GI50 (SN12C renal): < 19.3 nM
- TGI (SN12C renal): > 100000 nM
- GI50 (NCI-H226 lung): < 10 nM
- TGI (NCI-H226 lung): 75.3 nM
- GI50 (DU-145 prostate): < 19 nM
- TGI (DU-145 prostate): > 100000 nM
- GI50 (M14 melanoma): < 17.1 nM
- TGI (M14 melanoma): > 100000 nM
- GI50 (HT29 colon): < 10 nM
- GI50 (SF-539 CNS): < 10 nM
- TGI (SF-539 CNS): 49.1 nM
- GI50 (SF-295 CNS): < 11.1 nM
- TGI (SF-295 CNS): > 100000 nM
- GI50 (RPMI-8226 leukemia): < 21.7 nM
- GI50 (LOX IMVI melanoma): < 11.4 nM
- TGI (LOX IMVI melanoma): > 100000 nM
- GI50 (HOP-92 NSCLC): 16200 nM
- TGI (HOP-92 NSCLC): > 100000 nM
- GI50 (OVCAR-8 ovarian): < 17.9 nM
- GI50 (SW-620 colon): < 19.2 nM
- TGI (SW-620 colon): > 100000 nM
- GI50 (NCI/ADR-RES ovarian): < 15.2 nM
- TGI (NCI/ADR-RES ovarian): 95.9 nM
- GI50 (HCT-15 colon): < 16.9 nM
- TGI (HCT-15 colon): > 100000 nM
- GI50 (OVCAR-5 ovarian): < 18.6 nM
- TGI (OVCAR-5 ovarian): > 100000 nM
- GI50 (PC-3 prostate): < 19.7 nM
- TGI (PC-3 prostate): > 100000 nM
- GI50 (NCI-H460 lung): < 18.9 nM
- GI50 (SK-MEL-5 melanoma): < 14.9 nM
- TGI (SK-MEL-5 melanoma): 38 nM
- GI50 (HCT-116 colon): < 14.9 nM
- TGI (HCT-116 colon): > 100000 nM
- GI50 (UO-31 renal): < 23.6 nM
- TGI (UO-31 renal): > 100000 nM
- GI50 (MOLT-4 leukemia): < 20 nM
- TGI (MOLT-4 leukemia): > 100000 nM
- GI50 (OVCAR-3 ovarian): < 10 nM
- TGI (OVCAR-3 ovarian): 171 nM
- GI50 (SK-MEL-28 melanoma): 146 nM
- TGI (SK-MEL-28 melanoma): > 100000 nM
- GI50 (K-562 leukemia): < 14.3 nM
- TGI (K-562 leukemia): > 100000 nM
- GI50 (A498 renal): 21700 nM
- TGI (A498 renal): > 100000 nM
- GI50 (MDA-MB-435): < 10 nM
- TGI (MDA-MB-435): 24.8 nM
- GI50 (SNB-75 CNS): 26.2 nM
- TGI (SNB-75 CNS): > 100000 nM
- GI50 (NCI-H522 lung): < 10 nM
- TGI (NCI-H522 lung): < 17.2 nM
- GI50 (UACC-257 melanoma): > 100000 nM
- TGI (UACC-257 melanoma): > 100000 nM
- GI50 (COLO 205 colon): < 15.6 nM
- TGI (COLO 205 colon): < 23.9 nM
- GI50 (SNB-19 CNS): < 24.1 nM
- TGI (SNB-19 CNS): > 100000 nM
- GI50 (MCF7 breast): < 10 nM
- TGI (MCF7 breast): > 92000 nM
- GI50 (MDA-MB-231 breast): < 18.7 nM
- TGI (MDA-MB-231 breast): > 100000 nM
- GI50 (HS 578T breast): < 22.6 nM
- TGI (HS 578T breast): > 100000 nM
- GI50 (MALME-3M melanoma): 219 nM
- TGI (MALME-3M melanoma): > 100000 nM
- GI50 (HL-60(TB) leukemia): < 15.9 nM
- TGI (HL-60(TB) leukemia): 1830 nM
- GI50 (ACHN renal): < 14.4 nM
- TGI (ACHN renal): > 100000 nM
- GI50 (SR leukemia): < 10.7 nM
- TGI (SR leukemia): > 100000 nM
- GI50 (UACC-62 melanoma): < 10 nM
- TGI (UACC-62 melanoma): > 100000 nM
- GI50 (786-0 renal): < 19.8 nM
- TGI (786-0 renal): > 100000 nM
- GI50 (CAKI-1 renal): < 12.2 nM
